US20100168102A9, “Amide Derivatives as Kinase Inhibitors” (Devgen NV, priority 2005, published 2010)
Where a name gives a salt, the structure may show the parent alone. Read-outs that look alike come from different tables or passages of the source.

Assays:
PKC epsilon = molecular target: T1, PKC epsilon (Homo sapiens, UniProt Q02156); assay: Biochemical assay for PKC epsilon (fluorescence polarization, Protein Kinase C Assay Kit, Red); conditions: read-out: IC50 μM PKCε
T1 construct: purchased Invitrogen P2282
T1 sequence (Q02156 1-737): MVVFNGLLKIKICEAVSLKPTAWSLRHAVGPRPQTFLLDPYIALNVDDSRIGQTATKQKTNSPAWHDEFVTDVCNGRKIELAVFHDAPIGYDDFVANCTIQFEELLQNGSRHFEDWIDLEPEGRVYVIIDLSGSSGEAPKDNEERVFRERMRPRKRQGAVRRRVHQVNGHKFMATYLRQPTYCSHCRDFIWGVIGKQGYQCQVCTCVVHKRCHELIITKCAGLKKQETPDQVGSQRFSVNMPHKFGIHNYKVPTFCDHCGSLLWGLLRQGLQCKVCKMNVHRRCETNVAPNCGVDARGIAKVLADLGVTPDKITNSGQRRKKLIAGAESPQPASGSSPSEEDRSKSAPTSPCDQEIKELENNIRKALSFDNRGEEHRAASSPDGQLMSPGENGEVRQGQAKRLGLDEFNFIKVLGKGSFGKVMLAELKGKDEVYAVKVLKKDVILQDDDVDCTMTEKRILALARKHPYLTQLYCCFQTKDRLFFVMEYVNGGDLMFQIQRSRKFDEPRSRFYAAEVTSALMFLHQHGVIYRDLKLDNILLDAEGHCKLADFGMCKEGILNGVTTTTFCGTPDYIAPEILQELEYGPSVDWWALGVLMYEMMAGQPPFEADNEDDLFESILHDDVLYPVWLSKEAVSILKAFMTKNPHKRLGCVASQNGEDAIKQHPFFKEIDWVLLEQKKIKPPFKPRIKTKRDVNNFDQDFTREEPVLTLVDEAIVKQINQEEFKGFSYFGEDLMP
Outline: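 PKC epsilon at 10 ng/ml final was preincubated 30 min at room temperature with compound in HEPES pH 7.4 with DTT and Triton X-100. ATP/protein substrate was then added in buffer with MgCl2 and CaCl2 for 80 min. The reaction was stopped with EDTA, phosphorylation was detected by fluorescence polarization with rhodamine tracer and anti-phosphoserine antibody, and IC50 values came from curve fits.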

human ROCKα/ROCKII mix = molecular target: T2, human ROCKα/ROCKII mix (Homo sapiens, UniProt O75116); assay: Biochemical assay for ROCK (fluorescence polarization, ROCK IMAP Kit)
T2 construct: purchased Upstate Biotechnology 14-451

[1] = Table 2, compounds of Formula XIII

T2 sequence (O75116 11-552 limits assumed): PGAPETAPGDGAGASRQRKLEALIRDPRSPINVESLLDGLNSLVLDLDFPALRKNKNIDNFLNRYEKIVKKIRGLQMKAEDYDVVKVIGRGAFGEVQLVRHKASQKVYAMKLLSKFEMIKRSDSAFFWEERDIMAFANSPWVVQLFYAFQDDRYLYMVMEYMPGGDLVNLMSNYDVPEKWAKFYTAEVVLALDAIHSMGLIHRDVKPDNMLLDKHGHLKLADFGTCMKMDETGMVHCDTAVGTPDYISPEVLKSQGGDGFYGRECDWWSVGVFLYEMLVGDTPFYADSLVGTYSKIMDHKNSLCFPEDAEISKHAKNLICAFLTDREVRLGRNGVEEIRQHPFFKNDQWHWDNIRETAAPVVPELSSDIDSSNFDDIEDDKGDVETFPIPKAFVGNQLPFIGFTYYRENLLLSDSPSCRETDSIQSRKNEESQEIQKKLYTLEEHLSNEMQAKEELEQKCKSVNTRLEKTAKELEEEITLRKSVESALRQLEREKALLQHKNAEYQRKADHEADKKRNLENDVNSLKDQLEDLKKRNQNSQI

Compound | IC50 (PKC epsilon; [1]) [µM] | IC50 (human ROCKα/ROCKII mix; [1]) [µM] | IC50 (PKC epsilon) [µM] | IC50 (human ROCKα/ROCKII mix) [µM]
NC(CNC(=O)C1CCOc2ccc(F)cc21)c1ccc(C(=O)Nc2ccncc2)cc1 (centres unmarked) [Compound 393, 6-Fluoro-chroman-4-carboxylic acid {2-amino-2-[4-(pyridin-4-ylcarbamoyl)-phenyl]-ethyl}-amide] | 0.05 to 0.5 | 0.05 to 0.5 |  | 
N[C@H](CNC(=O)C1(c2ccc(Cl)cc2)CC1)c1ccc(C(=O)Nc2ccncc2)cc1 [Compound 397, 4-((S)-1-Amino-2-{[1-(4-chloro-phenyl)-cyclopropanecarbonyl]-amino}-ethyl)-N-pyridin-4-yl-benzamide dihydrochloric acid salt] |  |  | < 0.05 | 0.05 to 0.5
N[C@@H](CNC(=O)C1(c2ccc(Cl)cc2)CC1)c1ccc(C(=O)Nc2ccncc2)cc1 [Compound 398, 4-((R)-1-Amino-2-{[1-(4-chloro-phenyl)-cyclopropanecarbonyl]-amino}-ethyl)-N-pyridin-4-yl-benzamide dihydrochloric acid salt] |  |  | 0.5 to 5 | 0.5 to 5
CC(C)(C(=O)NC[C@H](N)c1ccc(C(=O)Nc2ccncc2)cc1)c1ccc(Cl)cc1 [Compound 400, 4-{(R)-1-Amino-2-[2-(4-chloro-phenyl)-2-methyl-propionylamino]-ethyl}-N-pyridin-4-yl-benzamide] |  |  | 0.5 to 5 | 0.5 to 5
N[C@H](CC(=O)NCc1ccc(F)cc1)c1ccc(C(=O)Nc2ccncc2)cc1 [Compound 401, 4-[(R)-1-Amino-2-(4-fluoro-benzylcarbamoyl)-ethyl]-N-pyridin-4-yl-benzamide dihydrochloric acid salt] |  |  | < 0.05 | 0.05 to 0.5
N[C@@H](CC(=O)NCc1ccc(F)cc1)c1ccc(C(=O)Nc2ccncc2)cc1 [Compound 402, 4-[(S)-1-Amino-2-(4-fluoro-benzylcarbamoyl)-ethyl]-N-pyridin-4-yl-benzamide dihydrochloric acid salt] |  |  | 0.05 to 0.5 | 0.05 to 0.5
N[C@H](CC(=O)N[C@@H]1COc2ccccc21)c1ccc(C(=O)Nc2ccncc2)cc1 [Compound 405, 4-{(R)-1-Amino-2-[(S)-(2,3-dihydro-benzofuran-3-yl)carbamoyl]-ethyl}-N-pyridin-4-yl-benzamide] |  |  | < 0.05 | < 0.05
N[C@H](CC(=O)N[C@H]1COc2ccccc21)c1ccc(C(=O)Nc2ccncc2)cc1 [Compound 406, 4-{(R)-1-Amino-2-[(R)-(2,3-dihydro-benzofuran-3-yl)carbamoyl]-ethyl}-N-pyridin-4-yl-benzamide] |  |  | 0.05 to 0.5 | 0.05 to 0.5
N[C@H](CNC(=O)C1(c2ccc(F)cc2)CCCC1)c1ccc(C(=O)Nc2ccncc2)cc1 [Compound 417, 4-((S)-1-Amino-2-{[1-(4-fluoro-phenyl)-cyclopentanecarbonyl]-amino}-ethyl)-N-pyridin-4-yl-benzamide dihydrochloric acid salt] |  |  | < 0.05 | 0.05 to 0.5
N[C@@H](CNC(=O)C1(c2ccc(F)cc2)CCCC1)c1ccc(C(=O)Nc2ccncc2)cc1 [Compound 418, 4-((R)-1-Amino-2-{[1-(4-fluoro-phenyl)-cyclopentanecarbonyl]-amino}-ethyl)-N-pyridin-4-yl-benzamide dihydrochloric acid salt] |  |  | 0.05 to 0.5 | 0.5 to 5
CC(C)(C(=S)NCC(N)c1ccc(C(=O)Nc2ccncc2)cc1)c1ccc(F)cc1 (centres unmarked) [Compound 419, 4-{1-Amino-2-[2-(4-fluoro-phenyl)-2-methyl-thiopropionylamino]-ethyl}-N pyridin-4-yl-benzamide dihydrochloric acid salt] |  |  | < 0.05 | 0.05 to 0.5
Cc1ccccc1CC(=O)N(C)CC(N)c1ccc(C(=O)Nc2ccncc2)cc1 (centres unmarked) [Compound 422, 4-{1-Amino-2-[methyl-(2-o-tolyl-acetyl)-amino]-ethyl}-N-pyridin-4-yl-benzamide] |  |  | 5 to 50 | 0.5 to 5
Cc1cccc(CC(=O)N(C)CC(N)c2ccc(C(=O)Nc3ccncc3)cc2)c1 (centres unmarked) [Compound 423, 4-{1-Amino-2-[methyl-(2-m-tolyl-acetyl)-amino]-ethyl}-N-pyridin-4-yl-benzamide] |  |  | 5 to 50 | 0.5 to 5
Cc1ccc(CC(=O)N(C)CC(N)c2ccc(C(=O)Nc3ccncc3)cc2)cc1 (centres unmarked) [Compound 424, 4-{1-Amino-2-[methyl-(2-p-tolyl-acetyl)-amino]-ethyl}-N-pyridin-4-yl-benzamide] |  |  | 5 to 50 | 0.5 to 5
COc1ccccc1CC(=O)N(C)CC(N)c1ccc(C(=O)Nc2ccncc2)cc1 (centres unmarked) [Compound 425, 4-(1-Amino-2-{[2-(2-methoxy-phenyl)-acetyl]-methyl-amino}-ethyl)-N-pyridin-4-yl-benzamide] |  |  | 5 to 50 | 0.5 to 5
COc1cccc(CC(=O)N(C)CC(N)c2ccc(C(=O)Nc3ccncc3)cc2)c1 (centres unmarked) [Compound 426, 4-(1-Amino-2-{[2-(3-methoxy-phenyl)-acetyl}-methyl-amino}-ethyl)-N-pyridin-4-yl-benzamide] |  |  | 5 to 50 | 0.05 to 0.5
COc1ccc(CC(=O)N(C)CC(N)c2ccc(C(=O)Nc3ccncc3)cc2)cc1 (centres unmarked) [Compound 427, 4-(1-Amino-2-{[2-(4-methoxy-phenyl)-acetyl]-methyl-amino}-ethyl)-N-pyridin-4-yl-benzamide] |  |  | 5 to 50 | 0.05 to 0.5
COc1ccc(C2(C(=O)N(C)CC(N)c3ccc(C(=O)Nc4ccncc4)cc3)CC2)cc1 (centres unmarked) [Compound 428, 4-(1-Amino-2-{[1-(4-methoxy-phenyl)-cyclopropanecarbonyl]-methyl-amino}-ethyl)-N-pyridin-4-yl-benzamide] |  |  | 5 to 50 | 0.5 to 5
COc1ccc(CC(=O)N(C)CC(N)c2ccc(C(=O)Nc3ccncc3)cc2)c(OC)c1 (centres unmarked) [Compound 430, 4-(1-Amino-2-{[2-(2,4-dimethoxy-phenyl)-acetyl]-methyl-amino}-ethyl)-N-pyridin-4-yl-benzamide] |  |  | 5 to 50 | 0.05 to 0.5

Continued, values first:

IC50 (PKC epsilon; [1]) [µM] | IC50 (human ROCKα/ROCKII mix; [1]) [µM] | IC50 (PKC epsilon) [µM] | IC50 (human ROCKα/ROCKII mix) [µM] | Compound
 |  | 0.5 to 5 | 0.5 to 5 | CN(CC(N)c1ccc(C(=O)Nc2ccncc2)cc1)C(=O)C1(c2ccc(F)cc2)CCC1 (centres unmarked) [Compound 474, 4-(1-Amino-2-{[1-(4-fluoro-phenyl)-cyclobutanecarbonyl]-methyl-amino}-ethyl)-N-pyridin-4-yl-benzamide]
 |  | 0.5 to 5 | 0.5 to 5 | CN(CC(N)c1ccc(C(=O)Nc2ccncc2)cc1)C(=O)C1(c2ccc(F)cc2)CCCC1 (centres unmarked) [Compound 475, 4-(1-Amino-2-{[1-(4-fluoro-phenyl)-cyclopentanecarbonyl]-methyl-amino}-ethyl)-N-pyridin-4-yl-benzamide]
 |  | 5 to 50 | 0.5 to 5 | CN(CC(N)c1ccc(C(=O)Nc2ccncc2)cc1)C(=O)Cc1cccc(F)c1F (centres unmarked) [Compound 477, 4-(1-Amino-2-{[2-(2,3-difluoro-phenyl)-acetyl]-methyl-amino}-ethyl)-N-pyridin-4-yl-benzamide]
 |  | 5 to 50 | 0.5 to 5 | CN(CC(N)c1ccc(C(=O)Nc2ccncc2)cc1)C(=O)Cc1cc(F)ccc1F (centres unmarked) [Compound 478, 4-(1-Amino-2-{[2-(2,5-difluoro-phenyl)-acetyl]-methyl-amino}-ethyl)-N-pyridin-4-yl-benzamide]
 |  | 5 to 50 | 0.5 to 5 | CN(CC(N)c1ccc(C(=O)Nc2ccncc2)cc1)C(=O)Cc1ccc(F)cc1F (centres unmarked) [Compound 479, 4-(1-Amino-2-{[2-(2,4-difluoro-phenyl)-acetyl]-methyl-amino}-ethyl)-N-pyridin-4-yl-benzamide]
 |  | 5 to 50 | 0.5 to 5 | CN(CC(N)c1ccc(C(=O)Nc2ccncc2)cc1)C(=O)C1(c2ccc(F)cc2F)CC1 (centres unmarked) [Compound 481, 4-(1-Amino-2-{[1-(2,4-difluoro-phenyl)-cyclopropanecarbonyl]-methyl-amino}-ethyl)-N-pyridin-4-yl-benzamide]
 |  | 0.5 to 5 | 0.5 to 5 | CN(CC(N)c1ccc(C(=O)Nc2ccncc2)cc1)C(=O)C(C)(C)c1ccc(F)c(F)c1 (centres unmarked) [Compound 485, 4-(1-Amino-2-{[2-(3,4-difluoro-phenyl)-2-methyl-propionyl]-methyl-amino}-ethyl)-N-pyridin-4-yl-benzamide]
 |  | 0.5 to 5 | 0.5 to 5 | CN(CC(N)c1ccc(C(=O)Nc2ccncc2)cc1)C(=O)C1(c2ccc(F)c(F)c2)CC1 (centres unmarked) [Compound 486, 4-(1-Amino-2-{[1-(3,4-difluoro-phenyl)-cyclopropanecarbonyl]-methyl-amino}-ethyl)-N-pyridin-4-yl-benzamide]
 |  | 0.5 to 5 | 0.5 to 5 | CN(CC(N)c1ccc(C(=O)Nc2ccncc2)cc1)C(=O)C1(c2ccc(F)c(F)c2)CCC1 (centres unmarked) [Compound 487, 4-(1-Amino-2-{[1-(3,4-difluoro-phenyl)-cyclobutanecarbonyl]-methyl-amino}-ethyl)-N-pyridin-4-yl-benzamide]
